Assay results from patent publication US8329755B2, “Methods for treating retroviral infections” (Roche Palo Alto LLC, priority 2004, dated 2012).

| SMILES | melting point [°C] |
| --- | --- |
| CCc1ccc(CC(=O)Nc2ccccc2Cl)cc1Oc1cc(Cl)cc(Br)c1Cl [Compound I-37, 2-[3-(3-Bromo-2,5-dichloro-phenoxy)-4-ethyl-phenyl]-N-(2-chloro-phenyl)-acetamide] | 146.5 to 147.6 |
| CCc1ccc(CC(=O)Nc2ccccc2Cl)cc1Oc1cc(Br)cc(Br)c1Cl [Compound I-38, N-(2-Chloro-phenyl)-2-[3-(3,5-dibromo-2-chloro-phenoxy)-4-ethyl-phenyl]-acetamide] | 155.5 to 155.8 |
| CCc1ccc(CC(=O)Nc2ccc(S(N)(=O)=O)cc2)cc1Oc1cc(Br)cc(F)c1Cl [Compound I-39, 2-[3-(5-Bromo-2-chloro-3-fluoro-phenoxy)-4-ethyl-phenyl]-N-(4-sulfamoyl-phenyl)-acetamide] | 209.9 to 211.1 |
| CCc1ccc(CC(=O)Nc2ccc(S(N)(=O)=O)cc2C)cc1Oc1cc(Br)cc(F)c1Cl [Compound I-40, 2-[3-(5-Bromo-2-chloro-3-fluoro-phenoxy)-4-ethyl-phenyl]-N-(2-methyl-4-sulfamoyl-phenyl)-acetamide] | 207 to 209.9 |
| CCc1ccc(CC(=O)Nc2ccccc2Cl)cc1Oc1cc(Br)cc(F)c1Cl [Compound I-41, 2-[3-(5-Bromo-2-chloro-3-fluoro-phenoxy)-4-ethyl-phenyl]-N-(2-chloro-phenyl)-acetamide] | 146.6 to 147.2 |
| Cc1cc(S(N)(=O)=O)ccc1NC(=O)Cc1ccc(C)c(Oc2cc(C#N)cc(C#N)c2)c1 [Compound I-43, 2-[3-(3,5-Dicyano-phenoxy)-4-methyl-phenyl]-N-(2-methyl-4-sulfamoyl-phenyl)-acetamide] | 228.6 to 230.9 |
| Cc1ccc(CC(=O)Nc2ccc(S(N)(=O)=O)cc2Cl)cc1Oc1cc(C#N)cc(C#N)c1 [Compound I-44, N-(2-Chloro-4-sulfamoyl-phenyl)-2-[3-(3,5-dicyano-phenoxy)-4-methyl-phenyl]-acetamide] | 209.9 to 211.5 |
| CCc1ccc(CC(=O)Nc2ccc(S(N)(=O)=O)cc2)cc1Oc1cc(Cl)cc(C#N)c1 [Compound I-45, 2-[3-(3-Chloro-5-cyano-phenoxy)-4-ethyl-phenyl]-N-(4-sulfamoyl-phenyl)-acetamide] | 170.7 to 172.4 |
| CCc1ccc(CC(=O)Nc2ccc(S(N)(=O)=O)cc2C)cc1Oc1cc(Cl)cc(C#N)c1 [Compound I-46, 2-[3-(3-Chloro-5-cyano-phenoxy)-4-ethyl-phenyl]-N-(2-methyl-4-sulfamoyl-phenyl)-acetamide] | 189.1 to 189.4 |
| CCc1ccc(CC(=O)Nc2ccc(S(N)(=O)=O)cc2Cl)cc1Oc1cc(Cl)cc(C#N)c1 [Compound I-47, 2-[3-(3-Chloro-5-cyano-phenoxy)-4-ethyl-phenyl]-N-(2-chloro-4-sulfamoyl-phenyl)-acetamide] | 181.1 to 183.9 |
| CCc1ccc(CC(=O)Nc2ccc(S(=O)(=O)NC)cc2)cc1Oc1cc(Cl)cc(C#N)c1 [Compound I-48, 2-[3-(3-Chloro-5-cyano-phenoxy)-4-ethyl-phenyl]-N-(4-methylsulfamoyl-phenyl)-acetamide] | 149.1 to 151.3 |
| CCc1ccc(CC(=O)Nc2ccc(S(N)(=O)=O)cc2)cc1Oc1cc(C#N)cc(F)c1Cl [Compound I-49, 2-[3-(2-Chloro-5-cyano-3-fluoro-phenoxy)-4-ethyl-phenyl]-N-(4-sulfamoyl-phenyl)-acetamide] | 167.9 to 170.5 |
| CCc1ccc(CC(=O)Nc2ccc(S(N)(=O)=O)cc2C)cc1Oc1cc(C#N)cc(F)c1Cl [Compound I-50, 2-[3-(2-Chloro-5-cyano-3-fluoro-phenoxy)-4-ethyl-phenyl]-N-(2-methyl-4-sulfamoyl-phenyl)-acetamide] | 217.6 to 220.4 |
| CCc1ccc(CC(=O)Nc2ccc(S(N)(=O)=O)cc2)cc1Oc1cc(C#N)cc(C#N)c1Cl [Compound I-52, 2-[3-(2-Chloro-3,5-dicyano-phenoxy)-4-ethyl-phenyl]-N-(4-sulfamoyl-phenyl)-acetamide] | 119.7 to 123.3 |
| CCc1ccc(CC(=O)Nc2ccc(S(N)(=O)=O)cc2C)cc1Oc1cc(C#N)cc(C#N)c1Cl [Compound I-53, 2-[3-(2-Chloro-3,5-dicyano-phenoxy)-4-ethyl-phenyl]-N-(2-methyl-4-sulfamoyl-phenyl)-acetamide] | 199.4 to 205.3 |
| CCc1ccc(CC(=O)Nc2ccc(S(N)(=O)=O)cc2Cl)cc1Oc1cc(C#N)cc(C#N)c1Cl [Compound I-54, 2-[3-(2-Chloro-3,5-dicyano-phenoxy)-4-ethyl-phenyl]-N-(2-chloro-4-sulfamoyl-phenyl)-acetamide] | 180.3 to 183.1 |
| Cc1cc(C#N)cc(C)c1Oc1cc(CC(=O)Nc2ccc(S(N)(=O)=O)cc2)ccc1Cl [Compound I-55, 2-[4-Chloro-3-(4-cyano-2,6-dimethyl-phenoxy)-phenyl]-N-(4-sulfamoyl-phenyl)-acetamide] | 227.3 to 231.4 |
| Cc1cc(S(N)(=O)=O)ccc1NC(=O)Cc1ccc(Cl)c(Oc2c(C)cc(C#N)cc2C)c1 [Compound I-56, 2-[4-Chloro-3-(4-cyano-2,6-dimethyl-phenoxy)-phenyl]-N-(2-methyl-4-sulfamoyl-phenyl)-acetamide] | 232.1 to 234.6 |

| SMILES | melting point [°C] |
| --- | --- |
| COc1ccc(CC(=O)Nc2ccc(S(N)(=O)=O)cc2)cc1Oc1cc(Cl)cc(C#N)c1 [Compound I-57, 2-[3-(3-Chloro-5-cyano-phenoxy)-4-methoxy-phenyl]-N-(4-sulfamoyl-phenyl)-acetamide] | 218.3 to 221.4 |
| CCc1ccc(CC(=O)Nc2ccccc2Cl)cc1Oc1cc(C#N)cc(F)c1Cl [Compound I-59, 2-[3-(2-Chloro-5-cyano-3-fluoro-phenoxy)-4-ethyl-phenyl]-N-(2-chloro-phenyl)-acetamide] | 142.1 to 142.8 |
| CCc1ccc(CC(=O)Nc2ccccc2Cl)cc1Oc1cc(C#N)cc(C#N)c1Cl [Compound I-60, 2-[3-(2-Chloro-3,5-dicyano-phenoxy)-4-ethyl-phenyl]-N-(2-chloro-phenyl)-acetamide] | 110 to 111.5 |
| COc1ccc(CC(=O)Nc2ccccc2Cl)cc1Oc1cc(Cl)cc(C#N)c1 [Compound I-61, 2-[3-(3-Chloro-5-cyano-phenoxy)-4-methoxy-phenyl]-N-(2-chloro-phenyl)-acetamide] | 175.7 to 178.3 |
| COc1ccc(CC(=O)Nc2ccccc2Cl)cc1Oc1cc(C#N)ccc1Cl [Compound I-62, 2-[3-(2-Chloro-5-cyano-phenoxy)-4-methoxy-phenyl]-N-(2-chloro-phenyl)-acetamide] | 194 to 197.8 |
| COc1ccc(CC(=O)Nc2ccc(S(N)(=O)=O)cc2Cl)cc1Oc1cc(Cl)cc(C#N)c1 [Compound I-64, 2-[3-(3-Chloro-5-cyano-phenoxy)-4-methoxy-phenyl]-N-(2-chloro-4-sulfamoyl-phenyl)-acetamide] | 186.3 to 189.7 |
| COc1ccc(CC(=O)Nc2ccc(S(N)(=O)=O)cc2)cc1Oc1cc(C#N)ccc1Cl [Compound I-65, 2-[3-(2-Chloro-5-cyano-phenoxy)-4-methoxy-phenyl]-N-(4-sulfamoyl-phenyl)-acetamide] | 252.3 to 254.3 |
| COc1ccc(CC(=O)Nc2ccc(S(N)(=O)=O)cc2C)cc1Oc1cc(C#N)ccc1Cl [Compound I-66, 2-[3-(2-Chloro-5-cyano-phenoxy)-4-methoxy-phenyl]-N-(2-methyl-4-sulfamoyl-phenyl)-acetamide] | 232.9 to 236.9 |
| COc1ccc(CC(=O)Nc2ccc(S(N)(=O)=O)cc2Cl)cc1Oc1cc(C#N)ccc1Cl [Compound I-67, 2-[3-(2-Chloro-5-cyano-phenoxy)-4-methoxy-phenyl]-N-(2-chloro-4-sulfamoyl-phenyl)-acetamide] | 214.6 to 216.4 |
| Cc1cc(C#N)cc(C)c1Oc1cc(CC(=O)Nc2ccccc2Cl)ccc1Cl [Compound I-68, 2-[4-Chloro-3-(4-cyano-2,6-dimethyl-phenoxy)-phenyl]-N-(2-chloro-phenyl)-acetamide] | 183.9 to 185.1 |
| COc1ccc(CC(=O)Nc2ccc(S(N)(=O)=O)cc2C)cc1Oc1cc(Cl)cc(C#N)c1 [Compound I-73, 2-[3-(3-Chloro-5-cyano-phenoxy)-4-methoxy-phenyl]-N-(2-methyl-4-sulfamoyl-phenyl)-acetamide] | 222.3 to 224.3 |
| Cc1cc(S(N)(=O)=O)ccc1NC(=O)Cc1ccc(C)c(Oc2cc(Cl)cc(C#N)c2)c1F [Compound I-74, 2-[3-(3-Chloro-5-cyano-phenoxy)-2-fluoro-4-methyl-phenyl]-N-(2-methyl-4-sulfamoyl-phenyl)-acetamide] | 230 to 232.2 |
| Cc1ccc(CC(=O)Nc2ccc(S(N)(=O)=O)cc2Cl)c(F)c1Oc1cc(Cl)cc(C#N)c1 [Compound I-83, 2-[3-(3-Chloro-5-cyano-phenoxy)-2-fluoro-4-methyl-phenyl]-N-(2-chloro-4-sulfamoyl-phenyl)-acetamide] | 228.9 to 230.6 |
| Cc1ccc(CC(=O)Nc2ccc(S(N)(=O)=O)cc2Cl)c(F)c1Oc1cc(C#N)cc(C(F)F)c1 [Compound I-84, N-(2-Chloro-4-sulfamoyl-phenyl)-2-[3-(3-cyano-5-difluoromethyl-phenoxy)-2-fluoro-4-methyl-phenyl]-acetamide] | 218 to 218.7 |
| Cc1cc(S(N)(=O)=O)ccc1NC(=O)Cc1ccc(C)c(Oc2cc(C#N)cc(C(F)F)c2)c1F [Compound I-85, 2-[3-(3-Cyano-5-difluoromethyl-phenoxy)-2-fluoro-4-methyl-phenyl]-N-(2-methyl-4-sulfamoyl-phenyl)-acetamide] | 218 to 220.4 |
| Cc1ccc(CC(=O)Nc2ccccc2Cl)c(F)c1Oc1cc(C#N)cc(C(F)F)c1 [Compound I-86, N-(2-Chloro-phenyl)-2-[3-(3-cyano-5-difluoromethyl-phenoxy)-2-fluoro-4-methyl-phenyl]-acetamide] | 163.3 to 164.4 |
| N#Cc1cc(Oc2cc(CC(=O)Nc3ccc(S(N)(=O)=O)cc3)ccc2Cl)cc(C(F)(F)F)c1 [Compound I-88, 2-[4-Chloro-3-(3-cyano-5-trifluoromethyl-phenoxy)-phenyl]-N-(4-sulfamoyl-phenyl)-acetamide] | 219 to 221.4 |
